Laboratory results as given in paper PMC4091635 (Bioorganic & medicinal chemistry, 2014).

Tested on: transformed PSC (human pancreatic stellate cells)
Experiment: AlamarBlue Cell Viability Assay, PSC proliferation
Type: cell-based
Conditions: mean of at least three independent experiments, NE: No effect

Structure (SMILES): COc1cc(OC)c2c(=O)cc(-c3ccc(O)cc3)oc2c1 [Compound 6, 2-(4-Hydroxy-phenyl)-5,7-dimethoxy-chromen-4-one]
- Inhibitory Effect (%) 20 μM: no significant antiproliferative effect
